One may read the IC50 as the concentration at which inhibition is half-maximal. A higher IC50 goes with a need for much substance.

For assay [1], the target named is GCN2 kinase (Homo sapiens (Human), UniProt Q9P2K8). Put plainly: Biochemical assay for GCN2 (TR-FRET kinase activity assay). The note with it: 1 mM ATP, 3-hour incubation. As for the experimental part:
Activity of GCN2 kinase was determined using a TR-FRET kinase activity assay (e.g. Riddle et al. Analytical Biochemistry (2006) 356(1) 108-116). Assays were conducted in 384-well plates (13 μL assay volume) using 2 nM GCN2 (Carna Biosciences), 130 nM GFP-EIf2α (Invitrogen), 0.2 mg/mL E. coli tRNA (sigma) and 1 mM ATP in kinase buffer (Invitrogen). Inhibition of GCN2 was measured by adding serial diluted test compound (final assay concentration of 0.5% DMSO) followed by a 3-hour incubation. Tb-peIF2α (pSer52) antibody (Invitrogen) (2 nM final assay concentration) in kinase buffer containing ETDA (final assay concentration of 20 mM) was added. After a 60 min incubation at room temperature, TR-FRET was monitored using an excitation wavelength of 340 nm and emission wavelengths of 490 nm and 520 nm. The emission ratio (520/490) at each compound concentration of was converted to percent inhibition using controls (i.e. reaction with no test compound and reaction with a known inhibitor) and IC50 values were calculated by fitting a four-parameter sigmoidal curve to the data using Prism (GraphPad software).
Background: Time-resolved FRET reads energy transfer from a long-lived donor to a nearby acceptor.

In assay [2] the target is PERK kinase (Homo sapiens (Human), UniProt Q9NZJ5). Description: Biochemical assay for PERK (coupled pyruvate kinase/lactate dehydrogenase assay). The note with it: 1 mM ATP, rate from 2-3 h time frame. As for the experimental part:
Activity of PERK kinase was determined spectroscopically using a coupled pyruvate kinase/lactate dehydrogenase assay that continuously monitors the ATP hydrolysis-dependent oxidation of NADH (e.g., Schindler et al. Science (2000) 289: 1938-1942). Assays were conducted in 384-well plates (100 μL final volume) using 10 nM PERK (from Beryllium), 0.25 mg/mL Myelin Basic Protein substrate, 1.5 units pyruvate kinase, 2.1 units lactate dehydrogenase, 1 mM phosphoenol pyruvate, 0.28 mM NADH and 1 mM ATP in assay buffer (100 mM Tris, pH 7.5, 15 mM MgCl2, 0.5 mM DTT, 0.004% (w/v) BSA, and 0.004% Triton X-100). Inhibition of PERK was measured by adding serial diluted test compound (final assay concentration of 1% DMSO). A decrease in absorption at 340 nm was monitored continuously for 6 hours at 30° C. on a multi-mode microplate reader (BioTek). The reaction rate was calculated using the 2-3 h time frame. The reaction rate at each concentration of compound was converted to percent inhibition using controls (i.e. reaction with no test compound and reaction with a known inhibitor) and IC50 values were calculated using software routines in Prism (GraphPad software).

A value given as a limit tells only on which side of the number the result lay.

PERK kinase, sequence (Q9NZJ5 other isoform, or with tags, fused parts or gaps): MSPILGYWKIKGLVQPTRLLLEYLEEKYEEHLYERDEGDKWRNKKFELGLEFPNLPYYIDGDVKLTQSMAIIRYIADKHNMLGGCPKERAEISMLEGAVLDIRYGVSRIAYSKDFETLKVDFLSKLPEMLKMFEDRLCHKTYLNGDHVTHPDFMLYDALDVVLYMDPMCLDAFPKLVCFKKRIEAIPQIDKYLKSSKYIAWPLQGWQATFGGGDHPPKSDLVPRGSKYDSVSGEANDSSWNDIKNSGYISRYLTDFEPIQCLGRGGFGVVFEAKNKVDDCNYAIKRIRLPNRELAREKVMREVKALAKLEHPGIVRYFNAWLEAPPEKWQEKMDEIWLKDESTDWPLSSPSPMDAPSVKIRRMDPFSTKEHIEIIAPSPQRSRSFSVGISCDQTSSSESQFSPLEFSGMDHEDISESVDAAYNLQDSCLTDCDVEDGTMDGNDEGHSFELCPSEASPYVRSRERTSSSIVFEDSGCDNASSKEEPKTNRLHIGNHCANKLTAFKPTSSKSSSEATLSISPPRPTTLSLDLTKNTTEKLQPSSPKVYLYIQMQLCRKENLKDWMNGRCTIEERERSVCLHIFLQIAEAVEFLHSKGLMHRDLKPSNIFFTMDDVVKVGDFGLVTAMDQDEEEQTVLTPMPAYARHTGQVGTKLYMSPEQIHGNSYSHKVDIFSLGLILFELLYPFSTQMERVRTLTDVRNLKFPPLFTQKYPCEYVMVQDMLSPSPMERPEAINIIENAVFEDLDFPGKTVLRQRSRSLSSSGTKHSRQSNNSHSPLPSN
GCN2 kinase, sequence (Q9P2K8 whole entry): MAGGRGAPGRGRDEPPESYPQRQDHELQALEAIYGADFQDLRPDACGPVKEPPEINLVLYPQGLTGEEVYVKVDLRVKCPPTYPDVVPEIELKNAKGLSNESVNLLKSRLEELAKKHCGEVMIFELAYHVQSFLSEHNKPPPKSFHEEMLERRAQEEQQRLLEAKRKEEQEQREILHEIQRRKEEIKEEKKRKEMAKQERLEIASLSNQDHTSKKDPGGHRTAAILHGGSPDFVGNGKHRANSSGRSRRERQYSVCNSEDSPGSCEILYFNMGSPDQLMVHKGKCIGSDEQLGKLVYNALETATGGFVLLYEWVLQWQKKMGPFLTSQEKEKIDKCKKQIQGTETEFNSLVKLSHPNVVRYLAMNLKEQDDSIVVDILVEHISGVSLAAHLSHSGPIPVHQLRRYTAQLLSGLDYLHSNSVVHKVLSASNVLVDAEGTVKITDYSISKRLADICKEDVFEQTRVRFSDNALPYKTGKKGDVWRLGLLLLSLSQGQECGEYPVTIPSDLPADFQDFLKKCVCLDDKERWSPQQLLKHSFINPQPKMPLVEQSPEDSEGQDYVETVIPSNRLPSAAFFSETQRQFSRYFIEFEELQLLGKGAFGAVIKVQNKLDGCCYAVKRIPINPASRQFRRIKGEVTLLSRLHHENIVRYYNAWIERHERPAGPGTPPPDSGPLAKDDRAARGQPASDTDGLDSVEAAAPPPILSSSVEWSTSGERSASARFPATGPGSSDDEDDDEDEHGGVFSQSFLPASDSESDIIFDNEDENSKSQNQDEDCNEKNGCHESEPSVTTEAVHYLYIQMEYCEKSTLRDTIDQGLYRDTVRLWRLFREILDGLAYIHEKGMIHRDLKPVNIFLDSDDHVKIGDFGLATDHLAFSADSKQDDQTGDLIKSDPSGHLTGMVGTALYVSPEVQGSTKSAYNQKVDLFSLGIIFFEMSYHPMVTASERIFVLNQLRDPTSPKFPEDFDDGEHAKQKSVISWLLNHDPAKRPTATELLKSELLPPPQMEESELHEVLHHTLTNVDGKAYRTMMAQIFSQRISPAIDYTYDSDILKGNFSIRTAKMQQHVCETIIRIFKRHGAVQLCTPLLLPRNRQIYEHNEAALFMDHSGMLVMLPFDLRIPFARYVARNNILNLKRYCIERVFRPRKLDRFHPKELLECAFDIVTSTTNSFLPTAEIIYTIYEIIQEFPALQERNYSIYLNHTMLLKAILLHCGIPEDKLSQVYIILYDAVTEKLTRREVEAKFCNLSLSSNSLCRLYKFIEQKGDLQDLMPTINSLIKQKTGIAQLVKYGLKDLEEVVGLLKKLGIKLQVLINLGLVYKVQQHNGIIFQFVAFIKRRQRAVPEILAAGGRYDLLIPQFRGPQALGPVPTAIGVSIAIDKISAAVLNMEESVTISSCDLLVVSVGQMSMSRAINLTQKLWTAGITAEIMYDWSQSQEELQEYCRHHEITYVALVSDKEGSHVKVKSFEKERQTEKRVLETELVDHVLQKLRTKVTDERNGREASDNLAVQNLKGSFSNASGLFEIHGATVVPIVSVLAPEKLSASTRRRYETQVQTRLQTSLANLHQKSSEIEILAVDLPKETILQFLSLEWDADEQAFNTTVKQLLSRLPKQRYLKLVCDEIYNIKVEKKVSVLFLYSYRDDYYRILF

In the case of `CNc1ncc2cc(-c3cccc(NS(=O)(=O)c4ccc(Br)c(C(F)(F)F)c4)c3F)ccc2n1` [Example 71], the IC50 in assay [1] and in assay [2] was 1000 to 10000 nM each time.
As for `CNc1ncc2cc(-c3cccc(NS(=O)(=O)c4cc(F)c(Br)cc4F)c3F)ccc2n1` [Example 72], the IC50 in assay [1] and in assay [2] was 100 to 500 nM each time.
Take `CNc1ncc2cc(-c3c(F)ccc(NS(=O)(=O)c4cc(Cl)cnc4OC)c3F)c(NC)nc2n1` [Example 73]: the IC50 in assay [1] and in assay [2] was 100 to 500 nM each time.
Consider `CNc1ncc2cc(-c3cc(NS(=O)(=O)c4cc(Cl)cc(Cl)c4)c(F)cc3C)c(C)nc2n1` [Example 75], for which the IC50 was in the range of 500 to 1000 nM in assay [1] and 100 to 500 nM in assay [2].
For the molecule `CNc1ncc2cc(-c3cc(NS(=O)(=O)c4cc(Cl)cnc4OC)ccc3C(F)(F)F)ccc2n1` [Example 76], the IC50 in assay [1] and in assay [2] was 1000 to 10000 nM throughout.
`CNc1ncc2cc(-c3cc(NS(=O)(=O)c4cc(Cl)cnc4OC)ccc3C(F)(F)F)c(C)nc2n1` [Example 80]: the concentration for half-maximal inhibition (IC50) in assay [1] fell in the range of 500 to 1000 nM; in assay [2], 1000 to 10000 nM.
Consider `CNc1ncc2cc(-c3cc(NS(=O)(=O)c4cc(Cl)cnc4OC)ccc3OC)ccc2n1` [Example 81], for which the IC50 in assay [1] and in assay [2] was 1000 to 10000 nM throughout.
On to `CNc1ncc2cc(-c3cc(NS(=O)(=O)c4cc(Cl)cnc4OC)ccc3OC)c(C)nc2n1` [Example 82], for which the concentration for half-maximal inhibition (IC50) in assay [1] and in assay [2] was 1000 to 10000 nM throughout.
Regarding `CNc1ncc2cc(-c3cccc(NS(=O)(=O)c4cc(Cl)cc(OC)c4Cl)c3F)ccc2n1` [Example 83], the half-inhibitory concentration (IC50) in assay [1] is 100 to 500 nM; in assay [2], ≤ 100 nM.
On to `CNc1ncc2cc(-c3cccc(NS(=O)(=O)c4ccc(OC)c(C)c4)c3F)ccc2n1` [Example 91], for which the IC50 in assay [1] fell in the range of 1000 to 10000 nM; in assay [2], 100 to 500 nM.
The matching figures for `CNc1ncc2cc(-c3cc(Cl)cc(NS(=O)(=O)c4cc(Cl)cnc4OC)c3)c(NC)nc2n1` [Example 94]: 500 to 1000 nM and 1000 to 10000 nM.
As for `CNc1ncc2cc(-c3cccc(NS(=O)(=O)c4cc(Cl)cnc4OC)c3F)c(NC3COC3)nc2n1` [Example 98], the values for the IC50 in assay [1] and in assay [2] were 100 to 500 nM and 500 to 1000 nM, respectively.
The matching figures for `CNc1ncc2cc(-c3cccc(NS(=O)(=O)c4cc(Cl)cnc4OC)c3F)c(NCC3COC3)nc2n1` [Example 99]: 100 to 500 nM and 100 to 500 nM.
In the case of `CNCCNc1nc2nc(NC)ncc2cc1-c1cccc(NS(=O)(=O)c2cc(Cl)cnc2OC)c1F` [Example 101], the IC50 in assay [1] was 100 to 500 nM; in assay [2], 1000 to 10000 nM.
The matching figures for `CNc1ncc2cc(-c3cc(F)cc(NS(=O)(=O)c4cc(Cl)cnc4OC)c3)c(OC)nc2n1` [Example 103]: 100 to 500 nM and 100 to 500 nM.
As for `CNc1nc2nc(N)ncc2cc1-c1cc(Cl)cc(NS(=O)(=O)c2cc(Cl)cnc2OC)c1` [Example 104], the IC50 in assay [1] and in assay [2] was 1000 to 10000 nM each time.
In the case of `CNc1ncc2cc(-c3cc(F)cc(NS(=O)(=O)c4cc(Cl)cnc4OC)c3)c(NCCOC)nc2n1` [Example 105], the IC50 in assay [1] fell in the range of 100 to 500 nM; in assay [2], 1000 to 10000 nM.
In the case of `CNc1ncc2cc(-c3cc(F)cc(NS(=O)(=O)c4cc(Cl)cnc4OC)c3)c(NC[C@@H](C)OC)nc2n1` [Example 107], the figures for the IC50 in assay [1] and in assay [2] were 500 to 1000 nM and 1000 to 10000 nM, respectively.
As to `CNc1ncc2cc(-c3cc(F)cc(NS(=O)(=O)c4cc(Cl)cnc4OC)c3)c(NC[C@H](C)OC)nc2n1` [Example 108], the IC50 in assay [1] fell in the range of 500 to 1000 nM; in assay [2] it was 1000 to 10000 nM.
With `CNc1ncc2cc(-c3cccc(NS(=O)(=O)c4cc(Cl)cc(C(N)=O)c4Cl)c3F)c(NC)nc2n1` [Example 112], the IC50 in assay [1] and in assay [2] was 1000 to 10000 nM each time.
On to `CNc1nc2nc(NCC(F)(F)F)ncc2cc1-c1cccc(NS(=O)(=O)c2cc(Cl)cnc2OC)c1F` [Example 116], for which the values for the IC50 in assay [1] and in assay [2] were ≤ 100 nM and 100 to 500 nM, respectively.
Consider `CNc1nc2nc(NC3CCC3)ncc2cc1-c1cccc(NS(=O)(=O)c2cc(Cl)cnc2OC)c1F` [Example 118], for which the IC50 in assay [1] is ≤ 100 nM; in assay [2] it was 100 to 500 nM.
Take `CNc1nc2nc(NC3CCCC3)ncc2cc1-c1cccc(NS(=O)(=O)c2cc(Cl)cnc2OC)c1F` [Example 119]: the results for the IC50 in assay [1] and in assay [2] were ≤ 100 nM and 100 to 500 nM, respectively.
`CNc1ncc2cc(-c3cccc(NS(=O)(=O)c4cc(F)cnc4OC)c3F)c(NC)nc2n1` [Example 122]: the IC50 was ≤ 100 nM in assay [1] and 100 to 500 nM in assay [2].
For `CNc1ncc2cc(-c3cccc(NS(=O)(=O)c4cc(Cl)cnc4OC4COC4)c3F)c(NC)nc2n1` [Example 125], the concentration for half-maximal inhibition (IC50) in assay [1] lay within 100 to 500 nM; in assay [2], 500 to 1000 nM.
The matching figures for `COc1cc(OC)c(S(=O)(=O)Nc2cccc(-c3cc4cnc(N)nc4nc3OC)c2F)cc1Cl` [Example 126]: 1000 to 10000 nM and 500 to 1000 nM.
For the molecule `CNc1ncc2cc(-c3cccc(NS(=O)(=O)c4cc(C(C)=O)ccc4Cl)c3F)c(NC)nc2n1` [Example 133], the IC50 in assay [1] and in assay [2] was 100 to 500 nM in each case.
Turning to `CNc1ncc2cc(-c3cccc(NS(=O)(=O)c4ccc(Cl)nc4OC)c3F)c(NC)nc2n1` [Example 142], the 50% inhibitory concentration (IC50) in assay [1] and in assay [2] was 100 to 500 nM throughout.
For the molecule `CNc1ncc2cc(-c3ccnc(NS(=O)(=O)c4cc(Cl)cnc4OC)c3F)c(NC)nc2n1` [Example 144], the IC50 in assay [1] and in assay [2] was 100 to 500 nM in each case.
Consider `CNc1ncc2cc(-c3cccc(NS(=O)(=O)c4cc(C#N)ccc4OC)c3F)c(NC)nc2n1` [Example 145], for which the values for the IC50 in assay [1] and in assay [2] were 100 to 500 nM and 500 to 1000 nM, respectively.
`CNc1ncc2cc(-c3cccc(NS(=O)(=O)c4cc(Cl)cnc4OC)c3F)c(OCCOC)nc2n1` [Example 147]: the IC50 in assay [1] was ≤ 100 nM; in assay [2], 100 to 500 nM.
The matching figures for `CNc1ncc2cc(-c3cccc(NS(=O)(=O)c4cc(C5CC5)cnc4OC)c3F)c(NC)nc2n1` [Example 153]: ≤ 100 nM and 100 to 500 nM.
As for `CNc1ncc2cc(-c3cccc(NS(=O)(=O)c4cc(Cl)cnc4OC4CC4)c3F)c(NC)nc2n1` [Example 154], the IC50 in assay [1] and in assay [2] was 100 to 500 nM in each case.
For the molecule `CNc1nc2nc(N)ncc2cc1-c1ccnc(NS(=O)(=O)c2cc(Cl)cnc2OC)c1F` [Example 155], the 50% inhibitory concentration (IC50) in assay [1] and in assay [2] was 100 to 500 nM each time.
On to `CNc1ncc2cc(-c3cccc(NS(=O)(=O)c4cccnc4OC)c3F)c(NC)nc2n1` [Example 156], for which the results for the IC50 in assay [1] and in assay [2] were 100 to 500 nM and 500 to 1000 nM, respectively.
With `CNc1ncc2cc(-c3cccc(NS(=O)(=O)c4cc(Cl)c[nH]c4=O)c3F)c(NC)nc2n1` [Example 160], the IC50 in assay [1] was in the range of 500 to 1000 nM; in assay [2], 1000 to 10000 nM.
For `CNc1ncc2cc(-c3cccc(NS(=O)(=O)c4ccc(Cl)cc4OC)c3F)c(NC)nc2n1` [Example 161], the IC50 in assay [1] and in assay [2] was 100 to 500 nM each time.
As for `CNc1ncc2cc(-c3cc(NS(=O)(=O)c4cc(Cl)cnc4OC)ccn3)ccc2n1` [Example 163], the IC50 in assay [1] and in assay [2] was 1000 to 10000 nM throughout.
On to `CNc1ncc2cc(-c3cccc(NS(=O)(=O)c4ncccc4OC)c3F)c(NC)nc2n1` [Example 166], for which the half-inhibitory concentration (IC50) in assay [1] and in assay [2] was 1000 to 10000 nM throughout.
As for `CNc1ncc2cc(-c3cccc(NS(=O)(=O)c4cc(Br)cnc4OC)c3F)c(NC)nc2n1` [Example 169], the IC50 in assay [1] was ≤ 100 nM; in assay [2], 100 to 500 nM.
The matching figures for `CNC(=O)c1cc(Cl)cc(S(=O)(=O)Nc2cccc(-c3cc4cnc(NC)nc4nc3NC)c2F)c1Cl` [Example 170]: 1000 to 10000 nM and 1000 to 10000 nM.

Source of the values: patent publication US11912668B2, “GCN2 and perk kinase inhibitors and methods of use thereof” (Deciphera Pharmaceuticals, LLC, priority 2020, dated 2024).
